Data published in ChEMBL document CHEMBL5331051, “Cationic, amphipathic small molecules based on a triazine-piperazine-triazine scaffold as a new class of antimicrobial agents” (Eur J Med Chem, 2022).
Values after ≈ are worked out from the molar mass of the structure shown. Active and inactive are the calls of the source. No cut-off for these calls is given here.

How the values were obtained:
Cell membrane [1] = test: Induction of outer membrane permeabilization in Escherichia coli KCTC 1682 assessed as increase in fluorescence intensity at 2 to 8 ug/ml by NPN staining based analysis; settings: dose 2-8 µg/ml
Pseudomonas aeruginosa [2] = test: Antibacterial activity against Pseudomonas aeruginosa KCTC 1637 strain assessed as bacterial growth inhibition measured at 18 to 24 hrs by microdilution assay; format: functional; settings: time 18-24 hrs
Erythrocyte = test: Hemolytic activity in sheep RBC assessed as minimal hemolytic concentration causing 10% hemolysis incubated for 1 hr by ELISA; format: toxicity, cell-based, Ovis aries
Escherichia coli [3] = test: Antibacterial activity against Escherichia coli KCTC 1682 strain assessed as bacterial growth inhibition measured at 18 to 24 hrs in presence of 6 uM NH4Cl by microdilution assay; format: functional; settings: time 18-24 hrs
Escherichia coli [4] = test: Antibacterial activity against Escherichia coli KCTC 1682 strain assessed as bacterial growth inhibition measured at 18 to 24 hrs in presence of 2.5 mM CaCl2 by microdilution assay; format: functional; settings: time 18-24 hrs
Staphylococcus aureus [5] = test: Antibacterial activity against Staphylococcus aureus KCTC 1621 strain assessed as bacterial growth inhibition measured at 18 to 24 hrs in presence of 4.5 mM KCl by microdilution assay; format: functional; settings: time 18-24 hrs
Staphylococcus aureus [6] = test: Antibacterial activity against Staphylococcus aureus KCTC 1621 strain assessed as bacterial growth inhibition measured at 18 to 24 hrs in presence of 1 mM MgCl2 by microdilution assay; format: functional; settings: time 18-24 hrs
Staphylococcus aureus [7] = test: Antibacterial activity against Staphylococcus aureus KCTC 1621 strain assessed as bacterial growth inhibition measured at 18 to 24 hrs in presence of 2.5 mM CaCl2 by microdilution assay; format: functional; settings: time 18-24 hrs
Staphylococcus aureus [8] = test: Antibacterial activity against Staphylococcus aureus KCTC 1621 strain assessed as bacterial growth inhibition measured at 18 to 24 hrs in presence of 4 uM FeCl3 by microdilution assay; format: functional; settings: time 18-24 hrs
Staphylococcus aureus [9] = test: Antibacterial activity against methicillin-resistant Staphylococcus aureus CCARM 3089 strain assessed as bacterial growth inhibition measured at 18 to 24 hrs by microdilution assay; format: functional; settings: time 18-24 hrs
Staphylococcus aureus [10] = test: Antibacterial activity against methicillin-resistant Staphylococcus aureus CCARM 3095 strain assessed as bacterial growth inhibition measured at 18 to 24 hrs by microdilution assay; format: functional; settings: time 18-24 hrs
Pseudomonas aeruginosa [11] = test: Antibacterial activity against multidrug-resistant Pseudomonas aeruginosa CCARM 2109 strain assessed as bacterial growth inhibition measured at 18 to 24 hrs by microdilution assay; format: functional; settings: time 18-24 hrs
Enterococcus faecium = test: Antibacterial activity against vancomycin-resistant Enterococcus faecium ATCC 51559 strain assessed as bacterial growth inhibition measured at 18 to 24 hrs by microdilution assay; format: functional; settings: time 18-24 hrs
Escherichia coli [12] = test: Antibacterial activity against Escherichia coli KCTC 1682 strain assessed as bacterial growth inhibition measured after 6 hrs in presence of trypsin by radial diffusion assay; format: functional, organism-based
Escherichia coli [13] = test: Antibacterial activity against Escherichia coli KCTC 1682 strain assessed as bacterial growth inhibition measured after 6 hrs in presence of proteinase K by radial diffusion assay; format: functional, organism-based
Lipopolysaccharide (LPS) [14] = test: Binding affinity to Escherichia coli O111:B4 lipopolysaccharide assessed as suppression of FTIC labeled LPS binding to mouse RAW264.7 cells at 20 ug/ml pretreated with LPS followed by compound addition by flow cytometer assay (reference value: 67.4%); format: cell-based; settings: dose 20.0 µg/ml
Cell membrane [15] = test: Induction of cell membrane depolarization in Staphylococcus aureus assessed as fluorescence intensity at 2 to 16 times MIC by DiSC3(5) dye based fluorescence assay; format: subcellular
Cell membrane [16] = test: Induction of cell membrane depolarization in Staphylococcus aureus assessed as increase in fluorescence intensity at 2 times MIC by SYTOX green staining based analysis
Cell membrane [17] = test: Induction of inner membrane permeabilization in Escherichia coli ML-35 assessed as increase in […] at 2 times MIC by ONPG staining based analysis
Cell membrane [18] = test: Induction of cell membrane damage in Escherichia coli KCTC 1682 assessed as increase in fluorescent intensity at 2 times MIC incubated for 30 mins by PI staining based flow cytometry assay (reference value: 9.79 %); format: subcellular
Staphylococcus aureus [19] = test: Additive antibacterial activity against multidrug-resistant Staphylococcus aureus CCARM 3089 strain assessed as fractional inhibitory concentration index in presence of chloramphenicol by checkerboard assay; format: functional
RAW264.7 = test: Antiinflammatory activity in LPS-induced mouse RAW264.7 cells assessed as reduction in NO production at 5 ug/ml measured after 72 hrs by ELISA assay relative to control; format: functional
Lipopolysaccharide (LPS) [20] = test: Binding affinity to Escherichia coli O111:B4 lipopolysaccharide assessed as suppression of FTIC labeled LPS binding to mouse RAW264.7 cells at 20 ug/ml pretreated LPS with cells for 1 hr followed by compound addition measured after 1 hr by flow cytometer assay (reference value: 48.12%); format: cell-based; settings: dose 20.0 µg/ml
Pseudomonas aeruginosa [21] = test: Synergistic antibacterial activity against multidrug-resistant Pseudomonas aeruginosa CCARM 2095 strain assessed as bacterial growth inhibition by checkerboard assay; format: functional
Pseudomonas aeruginosa [22] = test: Synergistic antibacterial activity against multidrug-resistant Pseudomonas aeruginosa CCARM 2095 strain assessed as oxacillin MIC by checkerboard assay; format: functional
Pseudomonas aeruginosa [23] = test: Synergistic antibacterial activity against multidrug-resistant Pseudomonas aeruginosa CCARM 2095 strain assessed as chloramphenicol MIC by checkerboard assay; format: functional
Pseudomonas aeruginosa [24] = test: Synergistic antibacterial activity against multidrug-resistant Pseudomonas aeruginosa CCARM 2095 strain assessed as ciprofloxacin MIC by checkerboard assay; format: functional
Pseudomonas aeruginosa [25] = test: Synergistic antibacterial activity against multidrug-resistant Pseudomonas aeruginosa CCARM 2095 strain assessed as bacterial growth inhibition in presence of ciprofloxacin by checkerboard assay; format: functional
Pseudomonas aeruginosa [26] = test: Synergistic antibacterial activity against multidrug-resistant Pseudomonas aeruginosa CCARM 2095 strain assessed as bacterial growth inhibition in presence of oxacillin by checkerboard assay; format: functional
Pseudomonas aeruginosa [27] = test: Synergistic antibacterial activity against multidrug-resistant Pseudomonas aeruginosa CCARM 2095 strain assessed as ciprofloxacin fractional inhibitory concentration by checkerboard assay; format: functional
Pseudomonas aeruginosa [28] = test: Synergistic antibacterial activity against multidrug-resistant Pseudomonas aeruginosa CCARM 2095 strain assessed as oxacillin fractional inhibitory concentration by checkerboard assay; format: functional
Pseudomonas aeruginosa [29] = test: Synergistic antibacterial activity against multidrug-resistant Pseudomonas aeruginosa CCARM 2095 strain assessed as fractional inhibitory concentration index in presence of chloramphenicol by checkerboard assay; format: functional
Staphylococcus aureus [30] = test: Synergistic antibacterial activity against methicillin-resistant Staphylococcus aureus CCARM 3089 strain assessed as ciprofloxacin MIC by checkerboard assay; format: functional
Staphylococcus aureus [31] = test: Synergistic antibacterial activity against methicillin-resistant Staphylococcus aureus CCARM 3089 strain assessed as oxacillin MIC by checkerboard assay; format: functional
Staphylococcus aureus [32] = test: Synergistic antibacterial activity against methicillin-resistant Staphylococcus aureus CCARM 3089 strain assessed as bacterial growth inhibition in presence of ciprofloxacin by checkerboard assay; format: functional
Staphylococcus aureus [33] = test: Additive antibacterial activity against multidrug-resistant Staphylococcus aureus CCARM 3089 strain assessed as fractional inhibitory concentration index in presence of oxacillin by checkerboard assay; format: functional
Pseudomonas aeruginosa [34] = test: Antibiofilm activity against multidrug-resistant Pseudomonas aeruginosa assessed as inhibition of biofilm formation; format: functional

Compound	Activity (Cell membrane [1])	MIC (Pseudomonas aeruginosa [2]) [µM]	MHC (Erythrocyte) [µM]	MIC (Escherichia coli [3]) [µM]	MIC (Escherichia coli [4]) [µM]	MIC (Staphylococcus aureus [5]) [µM]	MIC (Staphylococcus aureus [6]) [µM]	MIC (Staphylococcus aureus [7]) [µM]	MIC (Staphylococcus aureus [8]) [µM]	MIC (Staphylococcus aureus [9]) [µM]	MIC (Staphylococcus aureus [10]) [µM]	MIC (Pseudomonas aeruginosa [11]) [µM]	MIC (Enterococcus faecium) [µM]	Activity (Escherichia coli [12])	Activity (Escherichia coli [13])	Flu intensity (Lipopolysaccharide (LPS) [14]) [%]	Activity (Cell membrane [15])	Activity (Cell membrane [16])	Activity (Cell membrane [17])	Flu intensity (Cell membrane [18]) [%]	also measured
N=C(N)NCCNc1nc(NCCNC(=N)N)nc(N2CC(Cc3ccccc3)N(c3nc(NCCNC(=N)N)nc(NCCNC(=N)N)n3)CC2Cc2ccccc2)n1 (configuration not stated)	inactive	4.8 (≈ 3.96 µg/mL)	> 309.8	9.7	9.7	4.8	9.6	9.6	9.6	9.7 (≈ 8 µg/mL)	9.7 (≈ 8 µg/mL)	19.4 (≈ 16 µg/mL)	38.7 (≈ 31.9 µg/mL)	Active	Active	21.1	inactive	inactive	inactive	2.55	fractional inhibitory concentration index (FICI) (Staphylococcus aureus [19]): 0.75; inhibition at 5 µg/mL (RAW264.7): 68.1%; Flu intensity (Lipopolysaccharide (LPS) [20]): 40.6%
NCCCN(CCCN)c1nc(NCc2ccccc2)nc(N2CC(Cc3ccccc3)N(c3nc(NCc4ccccc4)nc(N(CCCN)CCCN)n3)CC2Cc2ccccc2)n1 (configuration not stated)	inactive	10 (≈ 8.93 µg/mL)	> 318.5	5	5	2.5	10	5	5	5 (≈ 4.47 µg/mL)	5 (≈ 4.47 µg/mL)	10 (≈ 8.93 µg/mL)	10 (≈ 8.93 µg/mL)	Active	Active	13.2	inactive	inactive	inactive	3.03	MIC (Pseudomonas aeruginosa [21]): 16 µg/mL; MIC (Pseudomonas aeruginosa [22]): 256 µg/mL; MIC (Pseudomonas aeruginosa [23]): 128 µg/mL; MIC (Pseudomonas aeruginosa [24]): 64 µg/mL; MIC (Pseudomonas aeruginosa [25]): 4 µg/mL; MIC (Pseudomonas aeruginosa [26]): 4 µg/mL; FIC (Pseudomonas aeruginosa [27]): 0.063; FIC (Pseudomonas aeruginosa [28]): 0.25; fractional inhibitory concentration index (FICI) (Pseudomonas aeruginosa [29]): 0.375; MIC (Staphylococcus aureus [30]): 64 µg/mL; MIC (Staphylococcus aureus [31]): 128 µg/mL; MIC (Staphylococcus aureus [32]): 1 µg/mL; fractional inhibitory concentration index (FICI) (Staphylococcus aureus [33]): 0.375; MBEC50 (Pseudomonas aeruginosa [34]): 10 µM; MBEC90 (Pseudomonas aeruginosa [34]): 39.8 µM; MBIC (Pseudomonas aeruginosa [34]): 10 µM; MBIC50 (Pseudomonas aeruginosa [34]): 5 µM; inhibition at 5 µg/mL (RAW264.7): 75.7%; Flu intensity (Lipopolysaccharide (LPS) [20]): 27.4%
NCCNc1nc(NCCN)nc(N2CC(Cc3ccccc3)N(c3nc(NCCN)nc(NCCN)n3)CC2Cc2ccccc2)n1 (configuration not stated)	inactive	6.1 (≈ 4.01 µg/mL)	> 389.1	6.1	6.1	6.1	6.1	6.1	6.1	48.6 (≈ 31.9 µg/mL)	12.2 (≈ 8.01 µg/mL)	24.3 (≈ 16 µg/mL)	24.3 (≈ 16 µg/mL)	Active	Active	21.4	inactive	inactive	inactive	8.57	MIC (Pseudomonas aeruginosa [24]): 256 µg/mL; MIC (Pseudomonas aeruginosa [25]): 4 µg/mL; FIC (Pseudomonas aeruginosa [27]): 0.25; MIC (Staphylococcus aureus [31]): 256 µg/mL; fractional inhibitory concentration index (FICI) (Staphylococcus aureus [19]): 0.75; fractional inhibitory concentration index (FICI) (Staphylococcus aureus [33]): 0.5; MBEC50 (Pseudomonas aeruginosa [34]): 24.3 µM; MBEC90 (Pseudomonas aeruginosa [34]): 97.3 µM; MBIC (Pseudomonas aeruginosa [34]): 24.3 µM; MBIC50 (Pseudomonas aeruginosa [34]): 3 µM; inhibition at 5 µg/mL (RAW264.7): 31.5%; Flu intensity (Lipopolysaccharide (LPS) [20]): 33.4%
NCCN(CCN)c1nc(NCc2ccccc2)nc(N2CC(Cc3ccccc3)N(c3nc(NCc4ccccc4)nc(N(CCN)CCN)n3)CC2Cc2ccccc2)n1 (configuration not stated)	inactive	5.4 (≈ 4.52 µg/mL)	> 342.5	5.4	5.4	5.4	5.4	5.4	5.4	5.4 (≈ 4.52 µg/mL)	5.4 (≈ 4.52 µg/mL)	10.7 (≈ 8.96 µg/mL)	21.4 (≈ 17.9 µg/mL)	Active	Active	8	inactive	inactive	inactive	10.5	MIC (Pseudomonas aeruginosa [21]): 16 µg/mL; MIC (Pseudomonas aeruginosa [22]): 128 µg/mL; MIC (Pseudomonas aeruginosa [23]): 256 µg/mL; MIC (Pseudomonas aeruginosa [24]): 256 µg/mL; MIC (Pseudomonas aeruginosa [25]): 2 µg/mL; MIC (Pseudomonas aeruginosa [26]): 4 µg/mL; FIC (Pseudomonas aeruginosa [27]): 0.25; FIC (Pseudomonas aeruginosa [28]): 0.125; fractional inhibitory concentration index (FICI) (Pseudomonas aeruginosa [29]): 0.5; MIC (Staphylococcus aureus [30]): 64 µg/mL; MIC (Staphylococcus aureus [31]): 256 µg/mL; MIC (Staphylococcus aureus [32]): 1 µg/mL; fractional inhibitory concentration index (FICI) (Staphylococcus aureus [33]): 0.5; MBEC50 (Pseudomonas aeruginosa [34]): 10.4 µM; MBEC90 (Pseudomonas aeruginosa [34]): 10.4 µM; MBIC (Pseudomonas aeruginosa [34]): 5.2 µM; MBIC50 (Pseudomonas aeruginosa [34]): 1.3 µM; Flu intensity (Lipopolysaccharide (LPS) [20]): 16.4%
